Test results as given in patent US11590116B2 (THERAVANCE BIOPHARMA R&D IP, LLC, priority 2019, dated 2023).

Assays:
[1] = target: T1, recombinant human ALK5 (TGF-βR1) protein (Homo sapiens, UniProt P36897); experiment: Biochemical ALK5 (TGF-βR1) assay to measure pKi (LANCE Ultra ULight kinase assay); details: apparent pKi from pIC50 by Cheng-Prusoff, read-out: ALK5 pKi (converted)
T1 construct: purchased Life Technologies PR9075A
T1 sequence (P36897 34-503): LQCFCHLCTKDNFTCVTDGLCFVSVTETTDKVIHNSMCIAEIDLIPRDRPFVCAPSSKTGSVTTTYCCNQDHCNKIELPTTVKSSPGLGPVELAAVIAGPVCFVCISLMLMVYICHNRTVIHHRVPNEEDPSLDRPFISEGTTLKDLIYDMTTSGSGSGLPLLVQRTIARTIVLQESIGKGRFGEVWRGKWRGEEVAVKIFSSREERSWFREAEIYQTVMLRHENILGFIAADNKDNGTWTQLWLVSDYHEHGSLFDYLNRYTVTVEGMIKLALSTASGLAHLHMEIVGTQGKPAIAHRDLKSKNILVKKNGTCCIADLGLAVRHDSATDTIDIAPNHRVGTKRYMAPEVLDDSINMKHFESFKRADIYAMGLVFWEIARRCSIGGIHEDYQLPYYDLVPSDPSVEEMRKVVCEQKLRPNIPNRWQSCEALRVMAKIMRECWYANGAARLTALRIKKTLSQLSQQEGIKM
Outline: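 Compounds (10 μM to 25 pM) preincubated 60 minutes at room temperature with enzyme, then reaction run 60 minutes at 37° C with ATP added as 125 μM (5× final). Stopped with EDTA plus Eu-anti-phospho-Topoisomerase 2-alpha (Thr1342) antibody, TR-FRET read at 665 nm; pIC50 converted to pKi via Cheng-Prusoff.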

[2] = test system: TGF-β-stimulated SMAD3 phosphorylation in BEAS-2B cells; experiment: Cellular ALK5 potency assay, inhibition of TGF-β stimulated pSMAD3 formation in BEAS-2B cells; format: cell-based; details: Homo sapiens; inhibition of TGF-β stimulated pSMAD3 formation, BEAS-2B cells; read-out: BEAS2B pIC50 (converted)
Outline: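 BEAS-2B human lung epithelial cells pre-treated 1 h at 37° C with compound in HBSS/25 mM HEPES/1% BSA, then stimulated 30 min with 10 ng/mL TGF-β (final). Lysates assayed for pSMAD3 by AlphaLISA; pIC50 from dose-dependent change versus stimulated untreated cells.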

| SMILES | Ki [1] | IC50 [2] |
| --- | --- | --- |
| Cc1cccc(-c2[nH]ncc2-c2ccc3ncc(C(=O)O[C@@H]4CCCNC4)cc3c2)n1 [Compound 1203, [(3R)-3-piperidyl] 6-[5-(6-methyl-2-pyridyl)-1H-pyrazol-4-yl]quinoline-3-carboxylate] | 0.0398 to 0.316 nM | 25.1 to 158 nM |
| Cc1cccc(-c2[nH]cnc2-c2ccc3nccc(C(=O)O[C@H]4CC[C@](C)(N)CC4)c3c2)n1 [Compound 1209, (4-amino-4-methyl-cyclohexyl) 6-[5-(6-methyl-2-pyridyl)-1H-imidazol-4-yl]quinoline-4-carboxylate] | 0.398 to 3.16 nM | 25.1 to 158 nM |
| Cc1cccc(-c2[nH]ncc2-c2ccc3nccc(C(=O)OC4CCNCC4)c3c2)n1 [Compound 1210, 4-piperidyl 6-[5-(6-methyl-2-pyridyl)-1H-pyrazol-4-yl]quinoline-4-carboxylate] | 0.0398 to 0.316 nM | 25.1 to 158 nM |
| Cc1cccc(-c2[nH]ncc2-c2ccc3ncc(C(=O)OC4CCC(N)CC4)cc3c2)n1 (stereo not drawn) [Compound 1216, (4-aminocyclohexyl) 6-[5-(6-methyl-2-pyridyl)-1H-pyrazol-4-yl]quinoline-3-carboxylate] | 0.0398 to 0.316 nM | < 20 nM |
| Cc1cccc(-c2[nH]ncc2-c2ccc3nccc(C(=O)O[C@H]4CC[C@H](N)CC4)c3c2)n1 [Compound 1217, (4-aminocyclohexyl) 6-[5-(6-methyl-2-pyridyl)-1H-pyrazol-4-yl]quinoline-4-carboxylate] | 0.398 to 3.16 nM | 25.1 to 158 nM |
| Cc1cccc(-c2[nH]ncc2-c2ccc3ncc(C(=O)O[C@H]4CCNC4)cc3c2)n1 [Compound 1218, [(3S)-pyrrolidin-3-yl]6-[5-(6-methyl-2-pyridyl)-1H-pyrazol-4-yl]quinoline-3-carboxylate] | 0.0398 to 0.316 nM | 25.1 to 158 nM |
| CN[C@H]1CC[C@H](OC(=O)c2cnc3ccc(-c4cn[nH]c4-c4cccc(C)n4)cc3c2)CC1 [Compound 1221, [4-(methylamino)cyclohexyl] 6-[5-(6-methyl-2-pyridyl)-1H-pyrazol-4-yl]quinoline-3-carboxylate] | 0.0398 to 0.316 nM | < 20 nM |
| Cc1cccc(-c2[nH]ncc2-c2ccc3nccc(C(=O)OC[C@H]4CCCN4)c3c2)n1 [Compound 1223, [(2R)-pyrrolidin-2-yl]methyl 6-[5-(6-methyl-2-pyridyl)-1H-pyrazol-4-yl]quinoline-4-carboxylate] | 3.98 to 31.6 nM | 25.1 to 158 nM |
| Cc1cccc(-c2[nH]ncc2-c2ccc3nccc(C(=O)OCC4CCNCC4)c3c2)n1 [Compound 1225, 4-piperidylmethyl 6-[5-(6-methyl-2-pyridyl)-1H-pyrazol-4-yl]quinoline-4-carboxylate] | 0.0398 to 0.316 nM | 25.1 to 158 nM |
| Cc1cccc(-c2[nH]ncc2-c2ccc3ncc(C(=O)O[C@H]4CC[C@@H](N)CC4)cc3c2)n1 [Compound 1228, (4-aminocyclohexyl) 6-[5-(6-methyl-2-pyridyl)-1H-pyrazol-4-yl]quinoline-3-carboxylate] | 0.0398 to 0.316 nM | 25.1 to 158 nM |
| COC(=O)CNc1cnc2ccc(-c3nc[nH]c3-c3cccc(C)n3)cc2c1 [Compound 1229, methyl 2-[[6-[5-(6-methyl-2-pyridyl)-1H-imidazol-4-yl]-3-quinolyl]amino]acetate] | 0.0398 to 0.316 nM | 25.1 to 158 nM |
| Cc1cccc(-c2[nH]ncc2-c2ccc3nccc(C(=O)OC[C@@H]4CCCN4)c3c2)n1 [Compound 1233, [(2S)-pyrrolidin-2-yl]methyl 6-[5-(6-methyl-2-pyridyl)-1H-pyrazol-4-yl]quinoline-4-carboxylate] | 0.0398 to 0.316 nM | 25.1 to 158 nM |

Second part, led by results:

| Ki [1] | SMILES | IC50 [2] |
| --- | --- | --- |
| < 0.0316 nM | Cc1cccc(-c2[nH]ncc2-c2ccc3ncc(C(=O)OCCC4CNC4)cc3c2)n1 [Compound 1204, 2-(azetidin-3-yl)ethyl 6-[5-(6-methyl-2-pyridyl)-1H-pyrazol-4-yl]quinoline-3-carboxylate] | 25.1 to 158 nM |
| 0.0398 to 0.316 nM | Cc1cccc(-c2[nH]ncc2-c2ccc3ncc(C(=O)OC[C@@H]4CCCCN4)cc3c2)n1 [Compound 1205, [(2S)-2-piperidyl]methyl 6-[5-(6-methyl-2-pyridyl)-1H-pyrazol-4-yl]quinoline-3-carboxylate] | < 20 nM |
| < 0.0316 nM | Cc1cccc(-c2[nH]cnc2-c2ccc3ncc(C4=CCC5(CCNC(=O)C5)CC4)cc3c2)n1 (stereo not drawn) [Compound 1206, 9-[6-[5-(6-methyl-2-pyridyl)-1H-imidazol-4-yl]-3-quinolyl]-3-azaspiro[5.5]undec-9-en-4-one] | 25.1 to 158 nM |
| < 0.0316 nM | Cc1cccc(-c2[nH]cnc2-c2ccc3ncc(-c4csc(C(=O)OC[C@H]5CCCCN5)c4)cc3c2)n1 [Compound 1207, [(2R)-2-piperidyl]methyl 4-[6-[5-(6-methyl-2-pyridyl)-1H-imidazol-4-yl]-3-quinolyl]thiophene-2-carboxylate] | 25.1 to 158 nM |
| 0.0398 to 0.316 nM | Cc1cccc(-c2[nH]ncc2-c2ccc3ncc(C(=O)OCCN4CC[C@@H](N)C4)cc3c2)n1 [Compound 1211, 2-[(3R)-3-aminopyrrolidin-1-yl]ethyl 6-[5-(6-methyl-2-pyridyl)-1H-pyrazol-4-yl]quinoline-3-carboxylate] | 25.1 to 158 nM |
| 0.0398 to 0.316 nM | Cc1cccc(-c2[nH]cnc2-c2ccc3ncc(-c4ccc(C(=O)OCCN5CCN6CCCC6C5)cn4)cc3c2)n1 (stereo not drawn) [Compound 1212, 2-(3,4,6,7,8,8a-hexahydro-1H-pyrrolo[1,2-a]pyrazin-2-yl)ethyl 6-[6-[5-(6-methyl-2-pyridyl)-1H-imidazol-4-yl]-3-quinolyl]pyridine-3-carboxylate] | 25.1 to 158 nM |
| < 0.0316 nM | Cc1cccc(-c2[nH]cnc2-c2ccc3ncc(-c4csc(C(=O)OC[C@@H]5CCCCN5)c4)cc3c2)n1 [Compound 1213, [(2S)-2-piperidyl]methyl 4-[6-[5-(6-methyl-2-pyridyl)-1H-imidazol-4-yl]-3-quinolyl]thiophene-2-carboxylate] | 25.1 to 158 nM |
| 0.0398 to 0.316 nM | Cc1cccc(-c2[nH]cnc2-c2ccc3ncc(-c4ccc(C(=O)OCCN5CCC[C@H](N)C5)cn4)cc3c2)n1 [Compound 1214, 2-[(3S)-3-amino-1-piperidyl]ethyl 6-[6-[5-(6-methyl-2-pyridyl)-1H-imidazol-4-yl]-3-quinolyl]pyridine-3-carboxylate] | 25.1 to 158 nM |
| < 0.0316 nM | Cc1cccc(-c2[nH]cnc2-c2ccc3ncc(-c4csc(C(=O)OC[C@H]5CCCN5)c4)cc3c2)n1 [Compound 1219, [(2R)-pyrrolidin-2-yl]methyl 4-[6-[5-(6-methyl-2-pyridyl)-1H-imidazol-4-yl]-3-quinolyl]thiophene-2-carboxylate] | 25.1 to 158 nM |
| 0.0398 to 0.316 nM | Cc1cccc(-c2[nH]cnc2-c2ccc3ncc(-c4csc(C(=O)OCCN5CC[C@@H](N)C5)c4)cc3c2)n1 [Compound 1220, 2-[(3R)-3-aminopyrrolidin-1-yl]ethyl 4-[6-[5-(6-methyl-2-pyridyl)-1H-imidazol-4-yl]-3-quinolyl]thiophene-2-carboxylate] | 25.1 to 158 nM |
| 0.0398 to 0.316 nM | Cc1cccc(-c2[nH]cnc2-c2ccc3ncc(-c4csc(C(=O)OCCN5C[C@@H](C)N[C@@H](C)C5)c4)cc3c2)n1 [Compound 1222, 2-[(3S,5R)-3,5-dimethylpiperazin-1-yl]ethyl 4-[6-[5-(6-methyl-2-pyridyl)-1H-imidazol-4-yl]-3-quinolyl]thiophene-2-carboxylate] | 25.1 to 158 nM |
| 0.0398 to 0.316 nM | Cc1cccc(-c2[nH]cnc2-c2ccc3ncc(-c4ccc(C(=O)OC[C@H]5CCCNC5)cn4)cc3c2)n1 [Compound 1224, [(3S)-3-piperidyl]methyl 6-[6-[5-(6-methyl-2-pyridyl)-1H-imidazol-4-yl]-3-quinolyl]pyridine-3-carboxylate] | 25.1 to 158 nM |
| 0.0398 to 0.316 nM | Cc1cccc(-c2[nH]cnc2-c2ccc3ncc(-c4nc(C(=O)OCCN5C[C@@H](C)N[C@@H](C)C5)cs4)cc3c2)n1 [Compound 1226, 2-[(3R,5S)-3,5-dimethylpiperazin-1-yl]ethyl 2-[6-[5-(6-methyl-2-pyridyl)-1H-imidazol-4-yl]-3-quinolyl]thiazole-4-carboxylate] | 25.1 to 158 nM |
| 0.0398 to 0.316 nM | Cc1cccc(-c2[nH]ncc2-c2ccc3ncc(C(=O)OC[C@H]4CCCNC4)cc3c2)n1 [Compound 1230, [(3S)-3-piperidyl]methyl 6-[5-(6-methyl-2-pyridyl)-1H-pyrazol-4-yl]quinoline-3-carboxylate] | 25.1 to 158 nM |
| < 0.0316 nM | Cc1cccc(-c2[nH]cnc2-c2ccc3ncc(-c4csc(C(=O)O[C@H]5CC[C@@](C)(N)CC5)c4)cc3c2)n1 [Compound 1232, (4-amino-4-methyl-cyclohexyl) 4-[6-[5-(6-methyl-2-pyridyl)-1H-imidazol-4-yl]-3-quinolyl]thiophene-2-carboxylate] | 25.1 to 158 nM |
